The test system of one assay is GUMC-403. The assay can be described thus: viability at highest tested concentration (max response) relative to DMSO (% of DMSO control); higher = less cytotoxic. As to conditions: library / dose series: MIPE library, 11-point 1:3 dilution; top concentration 7.37 µM; 48 h. The essentials: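 The value is viability at the highest tested concentration, expressed relative to vehicle control. Patient-derived GUMC-403 papilloma cells, grown by conditional reprogramming, were seeded at 700/well in 5 μL F + Y medium in 1536-well plates. After an overnight incubation at 37 °C, they received 23 nL of compound by pin tool for 48 h. Readout was CellTiter-Glo luminescence on a ViewLux, normalised to vehicle wells (100%) and empty wells (0%).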
In the case of `COc1ccc(CC2c3cc(OC)c(OC)cc3CC[N+]2(C)CCC(=O)OCCCCCOC(=O)CC[N+]2(C)CCc3cc(OC)c(OC)cc3C2Cc2ccc(OC)c(OC)c2)cc1OC` (centres undefined), the viability was determined as 84.

The assay is the same for the next values; noted with them: library / dose series: MIPE library, 11-point 1:3 dilution; top concentration 23 µM; 48 h.
In turn, `CN1CCCN(CC1)C2=CC=C3C(=O)\C(=C/4SC5=C(C=CC=C5)N4C3=N2)C(=O)NCC6=CN=C(C)C=N6` showed a viability of 101.

The assay is the same for the next values; noted with them: library / dose series: MIPE library, 11-point 1:3 dilution; top concentration 46.1 µM; 48 h.
The compound `N=C1S/C(=C\c2ccc(-c3ccc4c(c3)C(=O)NC4=O)o2)C(=O)N1c1ccc(Br)cc1` registered a viability of 142.

For `CC(C)[N+]1(C)C2CCC1CC(OC(=O)C(CO)c1ccccc1)C2.O.[Br-]` (centres undefined), the viability turned out to be 109.

`C[S+](=O)([O-])c1ccc(-c2cnc(N)c(C(=O)Nc3ccccc3)n2)cc1`: the viability amounted to 132.

The compound `C[C@@H](NCCCc1cccc(C(F)(F)F)c1)c1cccc2ccccc12` returned a viability of 99.7.

The compound `NC(=O)C1CCCc2c1[nH]c1ccc(Cl)cc21` (centres undefined) gave a viability of 96.

Regarding `COc1ccc2cc3[n+](cc2c1OC)CCc1cc2c(cc1-3)OCO2`, the viability came to 99.7.

In the case of `CC(C)(C)[C@]1(O)C[C@@H]2OC(=O)C[C@@]23C(=O)O[C@@H]2OC(=O)[C@H](O)C213` (some centres undefined), the viability is 99.4.

With `OC[C@H](Cc1ccccc1)Nc1nc(Oc2ccc3c(c2)CCC3)nc2c1ncn2Cc1ccc(-c2ccccc2)cc1`, the viability was determined as 101.

For the compound `COc1ccc(CCN2CCN(CCCc3ccccc3)CC2)cc1OC`, the viability turned out to be 120.

`C[C@H](NC(=O)/C(C#N)=C/c1cccc(Br)n1)c1ccccc1`: the viability is 31.7.

On to `FC(F)(F)c1ccc(/C=C/c2nc(COc3ccc(CCCCn4ccnn4)cc3)co2)cc1`, for which the viability worked out at 98.1.

In turn, `CN(C)CCN(Cc1ccc(Cl)cc1)c1ccccn1.Cl` showed a viability of 97.6.

In turn, `O=C1[O][Pt]2([NH]C3CCCCC3[NH]2)[O]C1=O` (centres undefined) gave a viability of 113.

Consider `CC(C)OC(=O)/C1=C/N(CC(C)(C)C2=C1[NH]C3=CC=CC=C23)C(=O)C4=CC=C(F)C(=C4)F`, for which the viability is 107.

In the case of `CN1CCN(CC1)C/2=N/C3=CC=CC=C3NC4=C2C=C(C)S4`, the viability amounted to 117.

On to `CC(C)c1c(C(=O)Nc2ccccc2)c(-c2ccccc2)c(-c2ccc(F)cc2)n1CC[C@@H](O)C[C@@H](O)CC(=O)[O-]`, for which the viability amounted to 70.3.

Regarding `O=C(C1CCCCC1)N1CC(=O)N2CCc3ccccc3C2C1` (centres undefined), the viability was 109.

On to `COc1ncnc(N[S+](=O)([O-])c2ccc(N)cc2)c1OC`, for which the viability was determined as 137.

`CCOC(=O)\C1=C\[C@@H](OC(CC)CC)[C@H](NC(C)=O)[C@@H](N)C1` had a viability of 123.

As for `COc1cc(C(C)=O)ccc1OCCCN1CCC(c2noc3cc(F)ccc23)CC1`, the viability is 102.

Consider `N#Cc1c(N(CC(=O)[O-])CC(=O)[O-])sc(C(=O)[O-])c1CC(=O)[O-].O.O.O.O.O.O.O.[Sr+2].[Sr+2]`, for which the viability worked out at 112.

In turn, `COc1ccc2c(c[n+](C)c3c4cc5c(cc4ccc23)OCO5)c1OC` came in with a viability of 38.7.

`Cc1ccc(C)c(OCCCC(C)(C)C(=O)O)c1` yielded a viability of 108.

`CCCCC[C@H](O)/C=C/[C@H]1[C@H](O)CC(=O)[C@@H]1CCCCCCC(=O)O`: the viability is 107.

In turn, `CN1C(=O)\C(=C/C(=C1/NC2=C(F)C=C(I)C=C2)C(=O)NOCCO)C` returned a viability of 80.2.

On to `CN1\C(=C(\O)C2=C(C=CS2)[S+]1([O-])=O)C(=O)NC3=CC=CC=N3`, for which the viability amounted to 126.

As for `COc1ccc(Cc2nccc3cc(OC)c(OC)cc23)cc1OC`, the viability stood at 109.

Compound `COc1cc(OC)c(C(=O)CCCN2CCCC2)c(OC)c1` displayed a viability of 112.

As to `CNC(=O)c1cc(Oc2ccc(NC(=O)Nc3ccc(Cl)c(C(F)(F)F)c3)c(F)c2)ccn1`, the viability amounted to 101.

In turn, `COc1c(C)c2c(c(O)c1C/C=C(\C)CCC(=O)OCCN1CCOCC1)C(=O)OC2` had a viability of 112.

As for `Oc1ccc([C@@H]2Oc3ccc(O)cc3[C@@H]3CCC[C@@H]32)cc1`, the viability stood at 96.3.

`COC(=O)C[C@](O)(CCCC(C)(C)O)C(=O)O[C@@H]1C(OC)=CC23CCCN2CCc2cc4c(cc2[C@H]13)OCO4` (some centres undefined) returned a viability of 140.

On to `O=C(Nc1cc(Cl)cc2c1[nH]c1cnccc12)c1cccnc1`, for which the viability is 56.8.

As to `C[C@@H]1CC[C@@]2(OC1)O[C@H]3C[C@H]4[C@@H]5C/C=C6/C[C@H](CC[C@]6(C)[C@H]5CC[C@]4(C)[C@H]3[C@@H]2C)O[C@@H]7O[C@H](CO)[C@@H](O[C@@H]8O[C@@H](C)[C@H](O)[C@@H](O)[C@H]8O)[C@H](O)[C@H]7O[C@@H]9O[C@@H](C)[C@H](O)[C@@H](O)[C@H]9O`, the viability is 112.

The compound `Cc1cc(Nc2cc(CN3CCOCC3)c3nc(C)c(Cc4ccc(Cl)cc4F)n3n2)[nH]n1` gave a viability of 74.1.

The compound `CCCNCC(O)COc1ccccc1C(=O)CCc1ccccc1` (centres undefined) had a viability of 90.5.

Take `O=C(NCc1ccccc1)c1csc(Nc2ccncn2)n1`: the viability amounted to 110.

As for `NNC(=O)c1ccncc1`, the viability was 104.

Take `COc1cccc(N(C)C(=S)Oc2ccc3c(c2)CCCC3)n1`: the viability came to 126.

`COC1CCC(CC1)N(C(=O)C2CCC(C)CC2)C3=C(SC(=C3)\C4=C\CCCC4)C(O)=O` (centres undefined) yielded a viability of 110.

Take `Cc1cccc(Nc2nc(N[C@@H]3CCCC[C@@H]3N)ncc2C(N)=O)c1`: the viability came out at 66.7.

Compound `CN[C@@H]1[C@@H](O)[C@@H](O[C@@H]2[C@@H](O)[C@H](O[C@H]3O[C@H](CN)[C@@H](O)[C@H](O)[C@H]3O)[C@@H](N)C[C@H]2NC(=O)[C@@H](O)CN)OC[C@]1(C)O` gave a viability of 96.8.

With `N\C1=N\C2=C(N=C[N]2COCCO)C(=O)N1`, the viability came out at 117.

Compound `Clc1ccc(COC(Cn2ccnc2)c2ccc(Cl)cc2Cl)cc1` (centres undefined) registered a viability of 117.

Turning to `COc1cc2cc(c1Cl)N(C)C(=O)C[C@H](OC(=O)C(C)C)[C@]1(C)O[C@@H]1[C@H](C)[C@@H]1C[C@@](O)(NC(=O)O1)[C@H](OC)/C=C/C=C(\C)C2`, the viability is 122.

In turn, `O=C1NCCc2[nH]c(-c3ccncc3)cc21` showed a viability of 125.

In turn, `CC(=O)C\1=C(/C)C2=CN=C(NC3=CC=C(C=N3)N4CCNCC4)N=C2N(C5CCCC5)C1=O` showed a viability of 93.

On to `COC1=CC=C2CN(C)CC[C@@]34\C=C/[C@H](O)C[C@@H]3OC1=C24`, for which the viability was determined as 122.

On to `CCNC(=O)CCC/C=C\C[C@@H]1[C@@H](/C=C/C(O)CCc2ccccc2)[C@@H](O)C[C@@H]1O` (some centres undefined), for which the viability was 109.

The compound `CN(C)CC(=O)N1CCC(CC1)C2=CC=C(NC(=O)C3=NC(=C[NH]3)C#N)C(=C2)\C4=C\CCCC4` returned a viability of 129.

Turning to `COc1ccc(C[C@@H](C)[C@@H](C)Cc2ccc(OC)c(OC)c2)cc1OC`, the viability was 122.

`CCN1CCCC1CNC(=O)c1cc([S+](N)(=O)[O-])ccc1OC` (centres undefined) displayed a viability of 134.

On to `NC/1=N/[C@]2(COC[C@H]2CS1)C3=CC(=CC=C3F)NC(=O)C4=NC=C(F)C=C4`, for which the viability was found to be 117.

As for `O=C(NCC1CCOCC1)c1cnc(Nc2ccc(Cl)cc2Cl)nc1C(F)(F)F`, the viability came to 141.

As for `COC1=C(OCCCN2CCOCC2)C=C3N=CC=C(OC4=CC=C(C=C4F)\C5=C\N=C(\NC6=CC=C(F)C=C6)N(C)C5=O)C3=C1`, the viability was found to be 72.6.

`CCN1CCCC1CNC(=O)c1cc(S(=O)(=O)CC)c(N)cc1OC` (centres undefined) yielded a viability of 119.

`CCCCCCCCOc1ccccc1C(=O)Nc1ccc(C(=O)OCC[N+](C)(CC)CC)cc1` yielded a viability of 104.

Consider `CCCCCNC(=O)N1CCC(CN(Cc2ccc(Cl)cc2)Cc2ccc([N+](=O)[O-])s2)C1` (centres undefined), for which the viability turned out to be 83.4.

The compound `O=[S+]([O-])(CC1CS1)c1ccc(Oc2ccccc2)cc1` (centres undefined) came in with a viability of 122.

On to `COc1ccc(C(CN(C)C)C2(O)CCCCC2)cc1` (centres undefined), for which the viability was 100.

Compound `COc1cc(-c2nn(C3CCC(N4CCN(C(C)=O)CC4)CC3)c3ncnc(N)c23)ccc1NC(=O)c1cc2ccccc2n1C` (centres undefined) registered a viability of 78.2.

The compound `COC[C@@H](NC(C)=O)C(=O)NCc1ccccc1` showed a viability of 133.

`Nc1nc(F)nc2c1ncn2[C@@H]1O[C@H](COP(=O)(O)O)[C@@H](O)[C@@H]1O` registered a viability of 101.

`CNCc1ccc(-c2[nH]c3cc(F)cc4c3c2CCNC4=O)cc1` gave a viability of 93.2.

`CC(C)c1onc(-c2c(Cl)cccc2Cl)c1COc1ccc(/C=C/c2cccc(C(=O)O)c2)c(Cl)c1` showed a viability of 123.

In turn, `COCCCC/C(=N\OCCN)c1ccc(C(F)(F)F)cc1` yielded a viability of 90.

Turning to `NCCCC(N)(C(=O)O)C(F)F` (centres undefined), the viability came to 114.

The compound `CN(CC(=O)N(Cc1ccc(C2CCCCC2)cc1)c1ccc(C(=O)O)c(O)c1)[S+](=O)([O-])c1c(F)c(F)c(F)c(F)c1F` came in with a viability of 112.

Compound `CC[C@H](NC(C)C)[C@H](O)c1ccc(O)c2[nH]c(=O)ccc12` registered a viability of 123.

Compound `N=C(N)NC(=O)c1nc(Cl)c(N)nc1N` yielded a viability of 125.

Take `CN(Cc1cnc2nc(N)nc(N)c2n1)c1ccc(C(=O)N[C@@H](CCC(=O)O)C(=O)O)cc1`: the viability is 111.

The same assay, now with this note: library / dose series: MIPE library, 11-point 1:3 dilution; top concentration 92.2 µM; 48 h.
Compound `C[C@@H](NC1=CC=CC=C1C(O)=O)C/2=C/C(=C\N3C(=O)/C=C(\N=C23)N4CCOCC4)C` came in with a viability of 34.9.

Source of the values: the supplement of paper PMC6723410.
